# Results from publication PMC8882856, “The affinity and selectivity of α‐adrenoceptor antagonists, antidepressants and antipsychotics for the human α2A, α2B, and α2C‐adrenoceptors and comparison with human α1 and β‐adrenoceptors” (Pharmacology Research & Perspectives, 2022).
# Where two headings read alike, the source gives them in different places.
# Experiments:
# human α2B‐adrenoceptor = target: T1, human α2B‐adrenoceptor (Homo sapiens, UniProt P18089); assay: ^3H‐rauwolscine whole cell competition binding, CHO‐α2B cells; conditions: for IC50 (log) α2B: printed as log IC50 bound (negative) in the Log KD α2B column, 3H-rauwolscine
# T1 sequence (P18089 1-450): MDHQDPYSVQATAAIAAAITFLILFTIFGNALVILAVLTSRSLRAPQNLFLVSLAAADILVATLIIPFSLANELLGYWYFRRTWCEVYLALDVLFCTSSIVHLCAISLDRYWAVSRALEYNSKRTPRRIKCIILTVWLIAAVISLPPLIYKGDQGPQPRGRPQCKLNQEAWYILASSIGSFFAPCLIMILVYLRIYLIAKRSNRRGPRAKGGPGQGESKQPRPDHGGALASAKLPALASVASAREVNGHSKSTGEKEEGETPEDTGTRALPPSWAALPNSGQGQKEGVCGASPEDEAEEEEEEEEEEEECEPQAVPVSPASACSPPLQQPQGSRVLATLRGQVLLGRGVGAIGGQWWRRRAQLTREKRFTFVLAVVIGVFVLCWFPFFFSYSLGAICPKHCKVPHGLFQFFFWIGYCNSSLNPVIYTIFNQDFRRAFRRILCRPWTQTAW
# human α2A‐adrenoceptor [1] = target: T2, human α2A‐adrenoceptor (Homo sapiens, UniProt P08913); assay: ^3H‐rauwolscine whole cell competition binding, CHO‐α2A cells
# T2 sequence (P08913 1-465): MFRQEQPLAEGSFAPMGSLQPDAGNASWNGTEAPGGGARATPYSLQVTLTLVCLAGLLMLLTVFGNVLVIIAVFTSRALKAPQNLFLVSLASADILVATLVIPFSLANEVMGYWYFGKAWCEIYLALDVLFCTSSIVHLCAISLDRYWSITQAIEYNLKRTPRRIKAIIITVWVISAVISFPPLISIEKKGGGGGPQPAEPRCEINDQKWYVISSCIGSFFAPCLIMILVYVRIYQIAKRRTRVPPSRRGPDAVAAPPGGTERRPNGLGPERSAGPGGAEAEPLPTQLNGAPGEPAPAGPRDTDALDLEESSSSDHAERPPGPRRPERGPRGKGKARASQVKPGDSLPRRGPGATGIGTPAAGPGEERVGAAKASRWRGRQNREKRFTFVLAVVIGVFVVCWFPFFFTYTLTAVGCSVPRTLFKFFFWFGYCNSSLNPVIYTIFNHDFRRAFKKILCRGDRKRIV
# human β1‐adrenoceptor = human β1‐adrenoceptor (Homo sapiens, UniProt P08588); conditions: for IC50 (log) β1: printed as log IC50 bound (negative) in the Log KD β1 column, 3H-CGP12177; for Log KD β1: mean ± s.e.mean
# Sequence of human β1‐adrenoceptor (P08588 whole entry): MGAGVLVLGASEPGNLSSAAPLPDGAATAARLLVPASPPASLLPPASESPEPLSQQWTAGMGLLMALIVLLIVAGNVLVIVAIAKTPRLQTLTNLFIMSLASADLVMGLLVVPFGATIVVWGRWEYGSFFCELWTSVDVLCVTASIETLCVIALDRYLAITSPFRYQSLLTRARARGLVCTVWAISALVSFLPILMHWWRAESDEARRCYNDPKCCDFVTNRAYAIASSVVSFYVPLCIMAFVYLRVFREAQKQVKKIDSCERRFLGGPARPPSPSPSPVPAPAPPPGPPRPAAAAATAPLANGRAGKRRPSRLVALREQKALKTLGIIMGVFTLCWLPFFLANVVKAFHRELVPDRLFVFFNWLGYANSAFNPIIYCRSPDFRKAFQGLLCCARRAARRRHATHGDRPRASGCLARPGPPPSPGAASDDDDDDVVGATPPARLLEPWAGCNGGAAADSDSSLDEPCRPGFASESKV
# human β2‐adrenoceptor = human β2‐adrenoceptor (Homo sapiens, UniProt P07550); format: binding; conditions: for IC50 (log) β2: printed as log IC50 bound (negative) in the Log KD β2 column, 3H-CGP12177; for Log KD β2: mean ± s.e.mean
# Sequence of human β2‐adrenoceptor (P07550 whole entry): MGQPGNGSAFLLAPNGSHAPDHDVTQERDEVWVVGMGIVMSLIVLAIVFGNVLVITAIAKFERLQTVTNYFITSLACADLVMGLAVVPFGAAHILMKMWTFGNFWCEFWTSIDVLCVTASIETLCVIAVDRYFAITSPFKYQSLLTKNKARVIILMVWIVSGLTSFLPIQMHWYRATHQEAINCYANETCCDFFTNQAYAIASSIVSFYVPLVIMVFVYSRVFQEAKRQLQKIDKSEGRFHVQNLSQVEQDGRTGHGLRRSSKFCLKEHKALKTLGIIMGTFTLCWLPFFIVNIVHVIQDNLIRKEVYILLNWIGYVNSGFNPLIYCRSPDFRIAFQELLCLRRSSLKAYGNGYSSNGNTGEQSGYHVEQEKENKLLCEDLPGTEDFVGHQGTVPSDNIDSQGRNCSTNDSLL
# human α2C‐adrenoceptor = target: T3, human α2C‐adrenoceptor (Homo sapiens, UniProt P18825); assay: ^3H‐rauwolscine whole cell competition binding, CHO‐α2C cells
# T3 sequence (P18825 1-462): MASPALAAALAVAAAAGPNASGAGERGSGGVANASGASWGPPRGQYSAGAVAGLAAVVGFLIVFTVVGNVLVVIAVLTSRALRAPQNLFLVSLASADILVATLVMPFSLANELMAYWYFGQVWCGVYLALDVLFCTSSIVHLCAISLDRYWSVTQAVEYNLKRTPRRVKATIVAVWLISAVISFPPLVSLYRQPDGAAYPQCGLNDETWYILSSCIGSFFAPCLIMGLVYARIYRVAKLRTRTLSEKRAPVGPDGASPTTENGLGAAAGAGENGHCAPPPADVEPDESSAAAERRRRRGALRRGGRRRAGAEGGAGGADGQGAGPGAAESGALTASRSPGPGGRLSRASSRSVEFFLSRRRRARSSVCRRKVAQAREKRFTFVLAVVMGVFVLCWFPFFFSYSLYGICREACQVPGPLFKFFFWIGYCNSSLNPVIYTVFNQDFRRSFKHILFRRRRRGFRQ
# human α2A‐adrenoceptor [2] = target: T2, human α2A‐adrenoceptor; assay: cell-based
# [3] = fold, higher affinity at α2C than α2A, 1 = no selectivity
# [4] = given as log KD (negative values), 3H-rauwolscine whole cell binding, CHO cells, mean ± s.e.mean
# [5] = ^3H‐CGP12177 whole cell binding, log values, ^app = apparent KD, 'no binding to' = log top concentration
# [6] = given as log KD (negative values), 3H-CGP12177 whole cell binding, CHO cells
# [7] = proportion of site 1 in two-site fit
# [8] = two-component inhibition, proportion of higher affinity site
structure (smiles),measurement,setting,value
COc1cc2nc(N3CCN(C(=O)COc4c(OC)cccc4C(C)C)CC3)nc(N)c2cc1OC [Rec15-2615],IC50 (log) α2B,human α2B‐adrenoceptor,IC50>-4.5
same,"Log KD α2A, apparent affinity (app)","human α2A‐adrenoceptor [1]; log KD (negative), apparent KD: maximum concentration inhibited most but not all specific binding, IC50 from extrapolated curve",-5.53 ± 0.12^app
same,IC50 (log) β1,human β1‐adrenoceptor,IC50>-4
same,IC50 (log) β2,human β2‐adrenoceptor,IC50>-4
same,Selectivity ratio α2A vs α2C (α2C-selective),human α2C‐adrenoceptor; [3],10.7
same,Log KD α2C,human α2C‐adrenoceptor; [4],-6.56 ± 0.13
O=C1Cc2cc(CCN3CCN(c4nsc5ccccc45)CC3)c(Cl)cc2N1 [ziprasidone],Log KD β1,human β1‐adrenoceptor; [5],No binding to −4
same,Log KD β1,human β1‐adrenoceptor; [6],No binding to -4
same,Log KD β2,human β2‐adrenoceptor; [5],No binding to −4
same,Log KD β2,human β2‐adrenoceptor; [6],No binding to -4
O=C1Nc2ccccc2C2=NC(CN3CCN(c4ccccc4)CC3)CN12 (stereo not drawn) [2-PMDQ],Log KD α2B,human α2B‐adrenoceptor; [4],-6.14 ± 0.08
same,Selectivity ratio α2A vs α2B (α2A-selective),"human α2A‐adrenoceptor [1]; fold, higher affinity at α2A than α2B, 1 = no selectivity",4.9
same,Log KD α2A,human α2A‐adrenoceptor [1]; [4],-6.83 ± 0.05
same,Log KD β1,human β1‐adrenoceptor; [6],No binding to -4
same,IC50 (log) β2,human β2‐adrenoceptor,IC50>-4
same,Selectivity ratio α2A vs α2C (α2C-selective),human α2C‐adrenoceptor; [3],1.7
same,Selectivity ratio α2B vs α2C (α2C-selective),"human α2C‐adrenoceptor; fold, higher affinity at α2C than α2B, 1 = no selectivity",8.5
same,Log KD α2C,human α2C‐adrenoceptor; [4],-7.07 ± 0.02
COC(=O)C1=C(C)NC(C)=C(C(=O)OCCCN2CCC(c3ccccc3)(c3ccccc3)CC2)[C@H]1c1cccc([N+](=O)[O-])c1 [2‐niguldipine],IC50,human β2‐adrenoceptor,> 100 µM
CN(C)CCCC1(c2ccc(F)cc2)OCc2cc(C#N)ccc21 (stereo not drawn) [citalopram],IC50,human α2A‐adrenoceptor [1],> 100 µM
same,Log KD β1,human β1‐adrenoceptor; [5],No binding to −4
same,Log KD β1,human β1‐adrenoceptor; [6],No binding to -4
same,Log KD β2,human β2‐adrenoceptor; [5],No binding to −4
same,Log KD β2,human β2‐adrenoceptor; [6],No binding to -4
same,IC50,human α2C‐adrenoceptor,> 100 µM
CN1CC[C@]2(CCN3CCc4c(oc5ccccc45)[C@@H]3C2)N(C)C1=O [MK-912],Log KD α2B,human α2B‐adrenoceptor; [4],-8.16 ± 0.10
same,Log KD α2A,human α2A‐adrenoceptor [1],-8.71 ± 0.05
same,Selectivity ratio α2A vs α2B (α2A-selective),human α2A‐adrenoceptor [1],3.6
same,IC50 (log) β1,human β1‐adrenoceptor,IC50>-4
same,IC50 (log) β2,human β2‐adrenoceptor,IC50>-4
same,Log KD α2C,human α2C‐adrenoceptor,-9.82 ± 0.11
same,Selectivity ratio α2A vs α2C (α2C-selective),human α2C‐adrenoceptor,12.9
same,Selectivity ratio α2B vs α2C (α2C-selective),human α2C‐adrenoceptor,45.7
COc1cccc(OC)c1OCCNCC1CSc2ccccc2O1 (stereo not drawn) [benoxathian],Log KD α2B,human α2B‐adrenoceptor,−5.96 ± 0.06
same,Log KD α2A,human α2A‐adrenoceptor [1],−7.17 ± 0.02
same,Selectivity ratio α2A vs α2B (higher affinity for α2A),human α2A‐adrenoceptor [1]; ratio of KD values,16.2
same,Log KD β1,human β1‐adrenoceptor; [5],−4.55 ± 0.03^app
same,Log KD β2,human β2‐adrenoceptor; [5],−5.08 ± 0.06
same,Log KD α2C,human α2C‐adrenoceptor,−7.75 ± 0.03
same,Selectivity ratio α2A vs α2C (higher affinity for α2C),human α2C‐adrenoceptor; ratio of KD values,3.8
same,Selectivity ratio α2B vs α2C (higher affinity for α2C),human α2C‐adrenoceptor; ratio of KD values,61.7
COc1ccccc1N1CCN(CCN2C(=O)c3ccccc3C(C)(C)C2=O)CC1 [ARC 239],Selectivity ratio α2A vs α2B (α2B-selective column),"human α2B‐adrenoceptor; fold, higher affinity at α2B than α2A, 1 = no selectivity",21.4
same,Selectivity ratio α2B vs α2C (α2B-selective column),"human α2B‐adrenoceptor; fold, higher affinity at α2B than α2C, 1 = no selectivity",1.2
same,Log KD α2B,human α2B‐adrenoceptor; [4],-7.32 ± 0.14
same,Log KD α2A,human α2A‐adrenoceptor [1]; [4],-5.99 ± 0.06
same,IC50 (log) β1,human β1‐adrenoceptor,IC50>-5
same,IC50 (log) β2,human β2‐adrenoceptor,IC50>-5
same,Selectivity ratio α2A vs α2C (α2C-selective),human α2C‐adrenoceptor; [3],18.2
same,Log KD α2C,human α2C‐adrenoceptor; [4],-7.25 ± 0.14
Cc1ccc(OCC(O)C(C)NC(C)C)c2c1CCC2 (stereo not drawn) [ICI 118551],IC50 (log) α2B,human α2B‐adrenoceptor,IC50>-4
same,Log KD α2A,human α2A‐adrenoceptor [1]; [4],-5.03 ± 0.03
same,Log KD α2C,human α2C‐adrenoceptor; [4],-5.05 ± 0.04
CNCCCC1c2ccccc2C=Cc2ccccc21 [protriptyline],Kd,human α2A‐adrenoceptor [2],10 µM
CC(COc1ccccc1)N(CCCl)Cc1ccccc1 (stereo not drawn) [phenoxybenzamine],% site 1 α2B (percentage through first component),human α2B‐adrenoceptor,−6.44 ± 0.11 −4.89 ± 0.08 51.4 ± 3.3% site 1
same,"% site 1, α2B",human α2B‐adrenoceptor; [7],51.4 ± 3.3%
same,"% site 1, α2B",human α2B‐adrenoceptor; [8],51.4 ± 3.3%
same,% site 1 α2C (percentage through first component),human α2C‐adrenoceptor,−6.41 ± 0.11 −4.71 ± 0.13 74.1 ± 4.1% site 1
same,"% site 1, α2C",human α2C‐adrenoceptor; [7],74.1 ± 4.1%
same,"% site 1, α2C",human α2C‐adrenoceptor; [8],74.1 ± 4.1%
CC(C)OC(=O)c1cc2c(OCC(O)CNC(C)(C)C)cccc2[nH]1 (stereo not drawn) [SDZ 21009],Log KD α2A (^app = apparent affinity),"human α2A‐adrenoceptor [1]; log KD, negative sign, apparent KD from extrapolated curve, maximum concentration inhibited most but not all specific binding",-4.86 ± 0.07^app
